What all share (assay type): cell-based, human
Experiment [1] deals with HEL cells. The experiment in a line: Growth curve of HEL cells (trypan blue viable cell count). As to conditions: 5 μg/ml, counted every day for 5 days. The method, then: To examine the effect of the compound (R)-NALPCE on cell growth, the HEL cells was monitored for growth curve in the presence thereof. The cells were aliquoted at a density of 3×10^5 cells per well in 6-well plates and treated with 5 μg/ml of (R)-NALPCE. After staining with trypan blue, viable cells were counted every day for 5 days.

The test system of experiment [2] is K562 cells. The experiment in a line: Megakaryocyte differentiation, CD41/CD61 expression over time by FACS, K562 cells. As to conditions: 40 μg/ml, 4 days. How it is done: K562 cells were aliquoted at a density of 2×10^5 cells per well in 6-well plates and treated with 40 μg/ml of (R)-NALPCE, followed by incubation for 4 days. After centrifugation (1,000 rpm, 5 min), the cell pellets thus obtained were washed three times with 0.01% bovine serum albumin (BSA) in PBS. Incubation with 10 μl of anti-CD41-fluorescein-5-isothiocyanate (FITC) (Dako Chemicals, Carpenteria, Calif.) or 20 μl of anti-CD61-phycoerythrin (PE) (BD Pharmingen) in 200 μl of 0.01% bovine serum albumin (BSA)-PBS was conducted at 4° C. for 50 min with spinning to realize homogeneous fluorescent staining. Following centrifugation (1,000 rpm, 10 min), the cell pellets thus obtained were rinsed three times with 0.01% bovine serum albumin (BSA) in PBS. Fluorescence was analyzed on a fluorescence-activated cell sorter (FACS) (Aria) using a Cellquest program.
In general terms: Flow cytometry measures light scatter and fluorescence of single cells or particles in a stream.

Experiment [3] deals with K562 cells. The experiment in a line: Differentiation of K562 cells layered on OP9 cells, CD41/CD61 by FACS. How it is done: OP9 cells were aliquoted at a density of 1×10^5 cells per well in 6-well plates and incubated for 24 hrs. After OP9 cells were uniformly attached onto the bottom of the plates, K562 cells were layered at a density of 1×10^5 cells per well over the OP cells in the 6-well plates. Treatment with 40 μg/ml of (R)-NALPCE was conducted before incubation in a day-dependent manner for 4 days. Following centrifugation (1,000 rpm, 5 min), the cell pellets thus obtained were rinsed three times with 0.01% bovine serum albumin (BSA) in PBS. Incubation with 10 μl of anti-CD41-fluorescein-5-isothiocyanate (FITC) (Dako Chemicals, Carpenteria, Calif.) and 20 μl of anti-CD61-phycoerythrin (PE) (BD Pharmingen) in 200 μl of 0.01% bovine serum albumin (BSA)-PBS was conducted at 4° C. for 50 min so as to achieve homogeneous fluorescent staining. After centrifugation (1,000 rpm, 10 min), the fluorescent-stained cell pellets thus obtained were washed three times with 0.01% bovine serum albumin (BSA) in PBS. Fluorescence was analyzed on a fluorescence-activated cell sorter (FACS) (Aria) using a Cellquest program.

Experiment [4] has as its system K562 cells. The experiment in a line: Cell differentiation of K562 cells on OP9 cells, optical microscopy. How it is done: A stromal line of OP9 cells derived from […] was aliquoted at a density of 1×10^5 cells in 6-well plates and incubated for 24 hrs. After the OP9 cells were uniformly attached onto the bottom of the plates, K562 cells were layered at a density of 1×10^5 cells on the OP9 cells in 6-well plates. The cells were treated with 40 μg/ml of (R)-NALPCE, or 500 pmole, 10 nmole or 50 nmole of PMA before incubation for 5 days. They were observed under an optical microscope with 200× magnification.

The subject of experiment [5] is K562 cells. The experiment in a line: Active form of platelet-like cells secreted from differentiated K562 cells, fluorescence microscopy. The method, then: OP9 cells were aliquoted at a density of 1×10^5 cells per well in 6-well plates and incubated for 24 hrs. After the OP9 cells were uniformly attached onto the bottom of the plates, K562 cells were layered at a density of 1×10^5 cells over the OP9 cells in the 6-well plates. The cells were treated with 40 μg/ml of (R)-NALPCE before incubation in a day-dependent manner for 5 days. […] The platelet-like cells were separated from the megakaryocytes by centrifuging the differentiated K562 cells at 500 rpm for 20 min and further centrifuging the supernatant at 3,000 rpm for 10 min.
A morphological comparison was made between the platelet-like cells and the pre-existing blood platelets using fibrinogen-coated slides. General slides (POLY-PREP, Sigma, U.S.A.) were coated with 20 μg/ml of fibrinogen in PBS ((R)-NALPCE-treated group) or with 1% bovine serum albumin (control) in PBS, and then incubated at 37° C. for 2 hrs in a humid atmosphere. A suspension of the separated platelet-like cells and the pre-existing blood platelets in PBS was placed on the slides. […] A drop of a mounting solution was spotted on the slides, which were then covered with a coverslip before observation under a fluorescence microscope. […] The cells thus stained were very gently washed three times with PBS and observed using a fluorescence microscope (Axiovision, Zeiss) with 400× magnification.

Results on one compound are retold here after patent US20080268535A1, “Method for Inducing the Differentiation of Human Myelogenous Leukemia Cells Into Megakarocytes or Thrombocytes” (EWHA University - Industry Collaboration Foundation, priority 2005, published 2008).

Structures are written as SMILES. Entries after “also recorded” stand apart in the source; their conditions may differ.

On to `CCCCCCCCCCCCCCCCCC(=O)NC(COP(=O)([O-])OCC[N+](C)(C)C)C(=O)OC` [(R)-NALPCE, N-steroyl-O-phosphocholine-D-serine methyl ester], for which the “cell growth curve (viable cells)” value in experiment [1] is “relatively low cell growth curve”. In addition, the “CD41 and CD61 expression rate” value in experiment [2] was “increase in expression rate in a time-dependent manner”. In addition, in experiment [3] (K562 cells on OP9 cells, 40 μg/ml, 4 days), the “increase in the count of CD41-positive cells, with OP9 cells versus alone” value is 15%. For the same compound, in experiment [3] (in combination with OP9 cells), the “differentiation inductivity compared with PMA” value was “comparable with the differentiation inductivity of PMA; also recorded: as good as that of PMA”. In addition, the “production or secretion of thrombocytes by differentiated megakaryocytes” value in experiment [4] ((R)-NALPCE with OP9 cells, PMA treatment) is “released a lot of thrombocytes”. In experiment [4] (K562 cells on OP9 cells, 40 μg/ml, 5 days), the “cell morphology (optical microscope)” value was “increased in size in a time-dependent manner, and anucleate cells such as thrombocytes were observed”. In experiment [5] (K562 cells on OP9 cells, 40 μg/ml, Day 5 after the treatment), the “appearance of anucleate platelet-like cells” value was “a large number of anucleate platelet-like cells appeared”. The “activation of released anucleate cells” value in experiment [5] (fibrinogen-coated slides, activators ADP, epinephrine, AYPGFK, MnCl2) is “activated in the same manner as the pre-existing blood platelets”.
